Reference: patent publication US20220280513A1, “ENHANCING THE ANTIVIRAL EFFICACY OF RNA VIRUS INHIBITION BY COMBINATION WITH MODULATORS OF PYRIMIDINE METABOLISM” (The Board of Trustees of the Leland Stanford Junior …, priority 2019, published 2022)

Key:
[1] = system: DENV-2 virus; experiment: Pilot antiviral assay, DENV-Luc replication in A549 cells (FIG. 2); type: cell-based, dengue serotype 2 (DENV-2) strain 16681; settings: alone, 20 μM exogenous uridine
Experimental: We therefore focused our efforts on evaluating CPU in combination with GSK983. Using an infectious clone of dengue serotype 2 (DENV-2) strain 16681 engineered to express a luciferase reporter, the efficacy and cytotoxicity of combinations of GSK983 and CPU were assessed in infected or uninfected cultures of the A549 lung carcinoma cell line (FIG. 2). […] However, a combination of 0.2 μM GSK and 250 μM CPU inhibited ca. 50% of virus replication.
(§1) DENV-Luc reporter virus generation: The design of the pDENV-Luc infectious clone derived from dengue serotype 2 (DENV-2) strain 16681 was described in detail by Marceau et al (Marceau et al., 2016). The plasmid was linearized with Xbal and in vitro transcribed into the genomic RNA of DENV-Luc virus using the T7 Megascript Kit (Ambion) in the presence of m7G(5′)ppp(5′)G RNA Cap Structure Analog (NEB). 5 μg DENV-Luc RNA was electroporated into 2×10^6 Vero cells. The transfected cells were resuspended with Dulbecco's modified Eagle's medium (DMEM; Invitrogen) with 10% FBS and 100 U/ml penicillin-streptomycin and transferred into a T-175 flask incubated at 37° C. with 5% CO2. Supernatants were collected and replenished with fresh medium every 24 h from day 17 to 24 post-transfection, pooled together, clarified by centrifugation and stored in aliquots at −80° C. The amount of infectious DENV-Luc virus in the stock was titrated using the TCID50 assay and calculated by the Spearman & Kärber algorithm as described previously (Hierholzer and Killington, 1996).
Pilot Antiviral Assays (for FIG. 2): A549 cells were plated overnight at 20,000 cells/well in 24-well plates in complete DMEM and incubated for 24 h at 37° C. Cell were then treated with pyrimidine de novo synthesis and/or salvage inhibitors in DMEM supplemented with 20 μM uridine. Four hours after drug addition, cells were infected with DENV-2 virus at a MOI=0.01. After 48 h, DENV-Luc replication was monitored by the production of Renilla luciferase, which was measured using the Renilla-Glo Luciferase Assay System (Promega) according to the specifications of the manufacturer. For the accompanying cell viability assay, A549 cells were seeded into 24-well plates at a density of 20,000 cells/well incubated for 24 h at 37° C. Cell were then treated with pyrimidine de novo synthesis and/or salvage inhibitors in DMEM supplemented with 20 μM uridine. Following 48h treatment, cells were harvested, and the density of viable cells was determined by flow cytometry (FSC/SSC) using a BD Accuri C6 Flow Cytometer.

[2] = system: DENV-2 virus; experiment: DENV antiviral assay, DENV-Luc replication in A549 cells (FIGS. 8 and 9); type: cell-based, dengue serotype 2 (DENV-2) strain 16681; settings: single agents, 20 μM uridine
Experimental: as §1
DENV antiviral assays (For FIGS. 8 and 9): A549 cells were plated overnight at 5,000 cells/well in 96-well plates in complete DMEM and incubated for 24 h at 37° C. Cells were then treated with pyrimidine de novo synthesis inhibitors, and/or salvage inhibitors, and/or R1479 in DMEM supplemented with 20 μM uridine. Four hours after drug addition, cells were infected with DENV-2 virus at a MOI=0.1. After 72 h, DENV-Luc replication was monitored by the production of Renilla luciferase, which was measured using the Renilla-Glo Luciferase Assay System (Promega) according to the specifications of the manufacturer. For the accompanying cell viability assay, A549 cells were seeded at 5,000 cells/well in 96-well plates in complete DMEM and incubated for 24 h at 37° C. Cell were then treated with pyrimidine de novo synthesis inhibitors, and/or salvage inhibitors, and/or R1479 in DMEM supplemented with 20 μM uridine. Following 48 h treatment, cell viability was monitored by ATP levels, which was measured using the CellTiter-Glo Luciferase Assay System (Promega) according to the specifications of the manufacturer.

[3] = system: a variety of unrelated viruses; settings: Harvey et al. (2009); read-out: EC50, replication of a variety of unrelated viruses in vitro; cited from earlier work
[4] = biological target: T1, recombinant human UCK2 (Homo sapiens, UniProt Q9BZX2); experiment: In vitro enzyme activity assay with recombinant human UCK2 (PK/LDH-coupled, UV 340 nm); type: biochemical
T1 construct: 6xHis (C); made in house; host or cells: E. coli BL21(DE3)
T1 sequence (Q9BZX2 1-261): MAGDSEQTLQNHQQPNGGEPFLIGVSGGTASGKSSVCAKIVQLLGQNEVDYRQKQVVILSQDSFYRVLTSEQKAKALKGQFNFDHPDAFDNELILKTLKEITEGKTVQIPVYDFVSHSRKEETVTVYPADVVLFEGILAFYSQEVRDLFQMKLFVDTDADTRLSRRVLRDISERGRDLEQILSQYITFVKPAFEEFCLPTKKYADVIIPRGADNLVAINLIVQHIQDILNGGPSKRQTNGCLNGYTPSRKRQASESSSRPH
Description: In order to guide our SAR studies, we developed an enzymatic assay to evaluate the inhibitory effect of each CPU analog against recombinant human UCK2, which was expressed and purified in E. coli. A continuous assay system was optimized by coupling UCK2 activity to the pyruvate kinase (PK) reaction, which in turn was coupled to lactate dehydrogenase (LDH). Overall reaction progress was continuously monitored by detecting the UV absorption change at 340 nm, which was correlated with the ATP consumption by UCK2. The effect of 250 μM of each CPU analog on UCK2 activity was evaluated in the presence of 50 μM uridine. […] We then individually measured the steady state kinetic parameters of UCK2 using uridine, CPU and 5-F-CPU as substrates. Their KM values were 86, 25, and 41 μM, and their kcat/KM values were 2.6×10^5, 1.5×10^5, and 7.3×10^4 s^−1 M^−1 (FIG. 5B).
Cloning, expression and purification of recombinant human UCK2 and CMPK1: Uridine cytidine kinase 2 (UCK2) was cloned into the pET-21a(+) vector using Ndel and Notl as restriction sites. […] The resulting plasmid was transformed into E. coli BL21(DE3) cells by electroporation, recovered in SOC at 37° C. for 1 h and plated onto LB agar plates with kanamycin overnight at 37° C. A single, isolated colony was inoculated into 30 mL LB supplemented with 50 μg/mL kanamycin and grown at 37° C. with shaking for 15 h. The next day, these cells were used to inoculate 1 L autoclaved LB with 50 μg/mL kanamycin. The flask was shaken at 37° C. When an optical density (OD600) of 0.7 was reached, protein expression was induced with 0.5 mM isopropyl β-D-1-thiogalactopyranoside (IPTG). The temperature was changed to 18° C. and flasks were shaken for an additional 15 h. The cell pellets were collected by spinning the media at 5000 rpm for 10 min. The pellets obtained were frozen by liquid nitrogen and stored in −80° C. for protein purification. Cell pellets were thawed and resuspended in lysis buffer containing Tris (40 mM, pH 7.5), NaCl (10 mM), imidazole (10 mM), DTT (1 mM). Cells were lysed by sonication and centrifuged at 25,000 g for 1 h. The supernatant was incubated with a slurry of Ni-NTA resin for 1 h at 4° C. and loaded onto a column. The nickel column wash buffer was Tris (40 mM, pH 7.5), NaCl (10 mM), DTT (1 mM) and each wash step contained increasing concentrations of imidazole (10, 50, or 250 mM). After SDS-PAGE confirmation of the protein fractions, protein was further purified using fast protein liquid chromatography (FPLC) using buffer A (50 mM Tris-HCl pH 8, 1 mM dithiothreitol (DTT), 10% glycerol) and elution buffer B (50 mM Tris-HCl pH 8, 1mM dithiothreitol (DTT), 10% glycerol with 500 mM NaCl) with changing gradient over a 20 minute from 2% to 100% Buffer B. FPLC eluents containing the protein was concentrated using Am icon centrifugal filter with 3K cut-off and the enzyme was stored in storage buffer (50 mM Tris-HCl pH 7.5, 10% glycerol). Human cytidine monophosphate kinase 1 (CMPK1) was purified as previously described (Deans et al., 2016).
In vitro enzyme activity assays with recombinant human UCK2: To continuously monitor reaction progress spectrophotometrically, ATP hydrolysis was coupled to NADH oxidation via pyruvate kinase (PK) and lactate dehydrogenase (LDH). Reactions were conducted at room temperature in 100 μL in 96-well plates (Greiner Bio-One, UV-Star, Half Area). Mixtures contained 20 mM HEPES (pH 7.2), 100 mM KCl, 2 mM MgCl2, 300 μM ATP, 0-500 μM uridine, 0-500 μM CPU analogs, 10 nM UCK2, 1 mM phosphoenolpyruvate, 500 μM NADH and 20 units/mL of PK and LDH. Progress was monitored in the linear region using a Biotek Synergy HT and kinetic and inhibition constants were determined using GraphPad Prism 7 (GraphPad Software).

[5] = system: intracellular uridine and cytidine nucleotide levels; experiment: LC-MS/MS analysis of intracellular nucleotides in A549 cells; type: cell-based; settings: 250 μM with 1 μM GSK983, 5 μM uridine, 6 h
Experimental: FIG. 7. LC-MS analysis of intracellular nucleotides. (A) LC-MS analysis of intracellular uridine and cytidine nucleotide levels after 6 h treatments. In all assays, the culture medium was supplemented with 5 μM uridine and 1 μM GSK983. Error bars represent ±S.D. of two replicates. (B) LC-MS detection of mono-, di- and tri-phosphates of CPU and 5-F-CPU in cells. LC-MS/MS was performed on an Agilent 1290 infinity II LC system tandem with 6370 triple quad mass spectrometer using ion pairing chromatography. LC separation was performed at 40° C. with a solvent flow rate of 0.25 mL/min on a Zorbax RRHD Extended-C18 column (2.1×150 mm, 1.8 μM). Buffer A contained 97% H2O, 3% MeOH, 5 mM tributylamine, 5.5 mM Acetic acid and 1 μM medronic acid with pH=5.0; Buffer B contains ca. 100% MeOH, 5 mM tributylamine, 5.5 mM Acetic acid and 5 μM medronic acid with pH=7.0 The initial mobile phase composition was 100% solvent A, and a constant or linear gradient was applied after sample injection with eluent B varying as follows: 0% at 2.5 min, 20% at 7.5 min, 45% at 14 min, 99% at 20 to 23 min, and 0% from 23.1 to 27.1 min. […] Samples were measured in the negative ESI mode with capillary voltage at −3.5 kV. […]
With optimized sampling and detection method in hand, pyrimidine nucleotide levels were measured in cells cultured with either 250 μM CPU, 5-F-CPU or 5′-F-CPU in combination with 1 μM GSK983 (FIG. 7A). […]

SMILES | inhibition of replication of DENV-2 virus, single agent [1] | antiviral activity as single agent [2] | EC50 [3] | UCK2 substrate or not (ATP consumption) ([4]; 250 μM analog in the presence of 50 μM uridine) | Ki ([4]; competitive inhibitors of UCK2, Lineweaver-Burk analysis) | depletion of intracellular uridine and cytidine nucleotide levels [5]
O=C(N[C@@H]1CCCc2c1[nH]c1ccc(Cl)cc21)c1ccccn1 [GSK983] | neither GSK nor CPU alone inhibited replication | neither GSK983 nor CPU were effective | 0.005 to 0.02 µM | – | – | –
O=c1ccn([C@@H]2C=C(CF)[C@@H](O)[C@H]2O)c(=O)[nH]1 [5′-F-CPU, 1-((1R,4R,5S)-3-(fluoromethyl)-4,5-dihydroxycyclopent-2-en-1-yl)pyrimidine-2,4(1H,3H)-dione] | – | – | – | inhibitors but not substrates | 170 µM | did not deplete
